From PMC9137037 (Frontiers in Oncology, 2022)
Where no end group is shown, it is not given here.

Legend:
[1] = tested on: cynomolgus monkeys; experiment: ELISA antibody titers, monkey study No.00213519; type: in vivo, Macaca fascicularis; conditions: monkey 2nd set, 25, 100, 250 µg on days 1, 15, 29, 43, serum days 29, 43, 57, APi2568 as capture
Procedure: The non-human primate studies were carried out by the Charles River Laboratories (Ashland, OH USA). All the cynomolgus monkeys (Macaca fascicularis of Chinese origin) were obtained from Charles River Laboratories (Houston, TX, USA). In brief, the animals were approximately 2–4 years old and at the body weight between 2.2 and 3.1 kg at the initial dosing. The animals were kept at the temperature between 19°C and 24°C, humidity 30%–70%, and with 12 h light and 12 h dark light cycle. The Good manufacturing practice (GMP)-manufactured vaccine was used in the non-human primate study. […] Similar to mouse and dog dosing preparation, after the emulsion was prepared, a drop test was performed on each time of dosing to confirm that the emulsion had been prepared properly. […] All the animals’ body weights were monitored weekly after receiving. […]
Enzyme-linked immunosorbent assay (ELISA) was performed per our lab standard procedure. […] After washing, the antibody was detected using 50 μl of 0.15% H2O2 in 24 mM of citric acid and 5 mM of the sodium phosphate buffer (pH5.2) with 0.5 mg/ml 2, […] (3-ethylbenzthiazole- 6-sulfonic acid, ABTS; Sigma, St. Louis, MO, USA) as the chromophore. […] Absorbance was read at 415 nm using an ELISA microplate reader (SPECTRAmax PLUS384; Molecular Devices, San Jose, CA, USA). The highest dilution at the cutoff absorbance 0.2 were determined as the antibody titer. […]

[2] = molecular target: T1, recombinant human PD-1 (rhPD-1) (Homo sapiens, UniProt Q15116); experiment: ELISA of monkey serum with rhPD-1 as capture agent; type: binding; conditions: monkey sera
T1 construct: His tag; purchased ACROBiosystems PD1-H5221
Procedure: For the detection of PD-1 human recombinant protein activity, the human recombinant protein PD-1 (PD1-H5221, HIS tag; ACROBiosystems, Newark, DE, USA) 100 μl at the concentration of […] were coated on the 96 wells plate as an antigen. The following procedures were performed as the description of ELISA.
In a separate experiment, these monkey serum samples were tested using recombinant human PD-1 (rhPD-1) as the capture agent. […] See Table 2 for summary of mouse, dog, and non-human primate experiments.

[3] = tested on: cynomolgus monkeys; experiment: GLP repeat-dose toxicology, second monkey study No.00213519; type: in vivo, Macaca fascicularis
Procedure: The non-human primate studies were carried out by the Charles River Laboratories (Ashland, OH USA). All the cynomolgus monkeys (Macaca fascicularis of Chinese origin) were obtained from Charles River Laboratories (Houston, TX, USA). In brief, the animals were approximately 2–4 years old and at the body weight between 2.2 and 3.1 kg at the initial dosing. The animals were kept at the temperature between 19°C and 24°C, humidity 30%–70%, and with 12 h light and 12 h dark light cycle. The Good manufacturing practice (GMP)-manufactured vaccine was used in the non-human primate study. […] Similar to mouse and dog dosing preparation, after the emulsion was prepared, a drop test was performed on each time of dosing to confirm that the emulsion had been prepared properly. […] The dose volume was split approximately equally across two different sites; 0.5 ml of the dose was intramuscularly (IM) injected into the right posterior lateral thigh, the left dosing was injected into the left site. All the animals’ body weights were monitored weekly after receiving. After each immunization, the animal body temperature was tested 6 and 24 h post each immunization. […] The animal bleed were collected before each time of immunization to monitor the antibody titers. There were two sets of non-human primate studies conducted. The first set of monkey study No.00213515 had 24 monkeys, 12 males, and 12 females divided into 4 groups: vehicle control, low dose 0.5 mg, medium dose 2 mg, and high dose 5 mg. There were 16 monkeys (8 males and 8 females) in the second set of monkey study No. 00213519. The monkeys in the four groups were vaccinated as follows: vehicle control, low dose 25 μg, medium dose 100 μg, and high dose 250 μg.
In the second set of non-human primate study (#00213519), 16 non-human primates, cynomolgus monkeys, were used. The monkeys were immunized […] at 2-week intervals represented by 1Y, 2Y, 3Y, and 4Y at days 1, 15, 29, and 43, respectively.The bleed were collected at day 1 (pre), day 29 (2Y+2/3Y), day 43 (3Y+2 and 4Y), and day 57 (4Y+2) ( Figure 4C ). There were four groups with 4 monkeys (2 males and 2 females) in each group. Group 1 was the control group, which was treated with only ISA 720 and ddwater. […] The Immunogenicity of peptide-based vaccines in non-human primates was detected by using ELISA to detect antibody titers in the sera of both non-human primate studies ( Figures 4E, F ). The relative high antibody responses have been established in each individual cynomolgus monkey.
A slight increase in anti-APi2568 antibody titers was observed between day 29 and day 43, with no apparent reduction in titers by […].

[4] = tested on: BALB/c mice; experiment: Observation for autoimmune symptoms in immunized mice; type: in vivo, mouse
Text: The common autoimmune symptoms are identified as follows: skin rashes, low-grade fever, achy muscles, fatigue, hair loss, trouble concentrating, and so on. […] For the dogs, the high volume of ISA 720 caused a lesion near the injection site that might result in mild swelling, but the symptoms were resolved weeks after. The immunized monkeys had some swelling at or near the site of IM injection, especially after the second or third dose and more frequent in females than males. In all the clinical observations, these animals either had recovered or were in the process of recovering. Despite these adverse clinical findings, all of them were active and in good condition throughout the project. Overall, there were no observable signs or uncontrolled autoimmune symptoms.

[5] = 0, 25, 100, 250 µg/dose, days 1, 15, 29, 43, 14-day recovery

T1 sequence (Q15116 25-288): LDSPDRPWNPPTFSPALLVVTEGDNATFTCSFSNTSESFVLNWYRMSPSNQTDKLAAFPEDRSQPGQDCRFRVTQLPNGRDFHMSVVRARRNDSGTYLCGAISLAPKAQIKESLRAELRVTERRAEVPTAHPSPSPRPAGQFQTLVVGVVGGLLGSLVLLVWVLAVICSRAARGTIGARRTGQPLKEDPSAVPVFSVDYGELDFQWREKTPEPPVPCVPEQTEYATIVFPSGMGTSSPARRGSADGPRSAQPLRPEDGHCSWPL

## KLLSLIKGVIVHRLEGVEGPSLGAISLAPKAQIKESLRAEL [MVF-PD-1(92-110)]
[1]; listed as APi2568
  anti-APi2568 antibody titers / immunogenicity (summary): high and were relatively uniform across sample collection days and between the APi2568 dose groups
[1]; listed as PD-1(92)
  anti-APi2568 antibody titers / immunogenicity (summary): high immunogenicity
[2]; days 29, 43, 57
  recognition of rhPD-1 by anti-APi2568 antibody in monkey serum (summary): high binding ability against rh-PD-1
[2]; days 29, 43, 57, listed as APi2568
  recognition of rhPD-1 by anti-APi2568 antibody in monkey serum (summary): some of the anti-APi2568 antibody formed in monkeys recognized rhPD-1
[3]; [5]
  effects on body weight, food consumption, body temperature, clinical pathology parameters, or organ weight: No APi2568-related adverse effects
  survival: All monkeys survived to the scheduled necropsy
[3]; 25, 100, 250 µg/dose IM as PD1-Vaxx, male and female cynomolgus monkeys
  NOAEL: 100 µg/dose
[3]; monkey 2nd set
  safety (summary): safe
[3]; single 250 µg/dose group female monkey, 4 doses at 2-week intervals
  microscopic finding in the biceps femoris IM injection site: adverse necrosis
[4]
  induction of autoimmune responses: has not been observed
